Paper PMC8213057, “Targeting ALK2: An Open Science Approach to Developing Therapeutics for the Treatment of Diffuse Intrinsic Pontine Glioma” (Journal of Medicinal Chemistry, 2020)

Assays:
CYP2C8 = target: T1, CYP2C8 (Homo sapiens, UniProt P10632); assay: CYP inhibition assay; assay type: in vitro ADME; conditions: human liver microsomes
T1 construct: tissue Corning 452117; host or cells: pooled human liver microsomes (UltraPool HLM 150, mixed gender)

NEK4 = NEK4 (Homo sapiens, UniProt P51957); conditions: 1 μM; Run 1, Run 2
p70S6Kb/RPS6KB2 = p70S6Kb/RPS6KB2 (Homo sapiens, UniProt Q9UBS0); conditions: 1 μM; Run 1, Run 2
PKG1a = target: T2, PKG1a (Homo sapiens, UniProt Q13976); conditions: 1 μM; Run 1, Run 2
T2 sequence (Q13976 1-671): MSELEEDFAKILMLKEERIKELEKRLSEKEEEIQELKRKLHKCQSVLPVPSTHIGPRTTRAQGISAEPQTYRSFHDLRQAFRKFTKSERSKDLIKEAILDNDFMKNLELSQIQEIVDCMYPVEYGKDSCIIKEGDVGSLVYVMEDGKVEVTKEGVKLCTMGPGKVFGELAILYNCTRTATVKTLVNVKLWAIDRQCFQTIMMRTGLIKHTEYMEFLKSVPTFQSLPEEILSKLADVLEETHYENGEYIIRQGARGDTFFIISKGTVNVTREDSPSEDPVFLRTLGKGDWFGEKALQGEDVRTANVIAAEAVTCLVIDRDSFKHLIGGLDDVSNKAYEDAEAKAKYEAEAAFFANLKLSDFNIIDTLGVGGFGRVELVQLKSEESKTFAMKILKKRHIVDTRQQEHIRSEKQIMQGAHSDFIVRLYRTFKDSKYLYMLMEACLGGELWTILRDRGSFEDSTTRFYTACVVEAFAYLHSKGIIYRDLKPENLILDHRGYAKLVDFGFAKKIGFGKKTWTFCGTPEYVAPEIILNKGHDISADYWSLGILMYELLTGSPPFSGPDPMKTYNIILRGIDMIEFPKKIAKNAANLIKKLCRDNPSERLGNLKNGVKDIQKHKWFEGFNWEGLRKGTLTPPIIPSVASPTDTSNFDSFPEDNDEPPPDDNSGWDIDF

OSR1/OXSR1 = OSR1/OXSR1 (Homo sapiens, UniProt O95747); assay: biochemical; conditions: read-out: % enzyme activity, 1 μM; Run 1, Run 2
GRK4 = GRK4 (Homo sapiens, UniProt P32298); conditions: 1 μM; Run 1, Run 2
SBK1 = SBK1 (Homo sapiens, UniProt Q52WX2); assay: biochemical; conditions: read-out: % enzyme activity, 1 μM; Run 1, Run 2
CHK1 = target: T3, CHK1 (Homo sapiens, UniProt O14757); conditions: 1 μM; Run 1, Run 2
T3 sequence (O14757 1-476): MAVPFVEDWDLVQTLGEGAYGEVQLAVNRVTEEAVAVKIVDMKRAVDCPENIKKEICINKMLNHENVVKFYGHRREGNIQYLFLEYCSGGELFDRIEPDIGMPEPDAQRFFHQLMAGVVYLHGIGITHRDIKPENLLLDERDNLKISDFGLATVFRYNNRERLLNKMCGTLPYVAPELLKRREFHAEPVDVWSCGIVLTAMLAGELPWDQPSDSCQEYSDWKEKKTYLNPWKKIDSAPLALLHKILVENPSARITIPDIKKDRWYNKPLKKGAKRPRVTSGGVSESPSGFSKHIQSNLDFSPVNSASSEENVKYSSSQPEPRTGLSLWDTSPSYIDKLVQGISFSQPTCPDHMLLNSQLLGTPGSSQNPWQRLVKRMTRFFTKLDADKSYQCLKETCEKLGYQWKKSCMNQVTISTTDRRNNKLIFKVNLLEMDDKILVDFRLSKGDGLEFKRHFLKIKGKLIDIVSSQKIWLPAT

CK1G3 = CK1G3 (Homo sapiens, UniProt Q9Y6M4); assay: biochemical; conditions: read-out: % enzyme activity, 1 μM; Run 1, Run 2
MAPKAPK5/PRAK = target: T4, MAPKAPK5/PRAK (Homo sapiens, UniProt Q8IW41); conditions: 1 μM; Run 1, Run 2
T4 sequence (Q8IW41 1-473): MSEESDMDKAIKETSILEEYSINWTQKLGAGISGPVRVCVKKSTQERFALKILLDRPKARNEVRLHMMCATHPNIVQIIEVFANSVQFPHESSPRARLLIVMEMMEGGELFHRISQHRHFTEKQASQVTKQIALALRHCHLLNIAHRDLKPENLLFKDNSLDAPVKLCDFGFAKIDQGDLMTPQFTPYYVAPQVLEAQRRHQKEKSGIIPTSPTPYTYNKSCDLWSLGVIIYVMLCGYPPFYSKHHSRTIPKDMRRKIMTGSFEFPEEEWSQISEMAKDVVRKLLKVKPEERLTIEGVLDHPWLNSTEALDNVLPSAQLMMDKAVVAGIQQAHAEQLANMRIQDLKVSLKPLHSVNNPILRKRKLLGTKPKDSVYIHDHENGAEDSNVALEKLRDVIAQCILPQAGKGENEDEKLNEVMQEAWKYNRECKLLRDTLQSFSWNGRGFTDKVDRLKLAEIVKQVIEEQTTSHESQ

P38b/MAPK11 = P38b/MAPK11 (Homo sapiens, UniProt Q15759); conditions: 1 μM; Run 1, Run 2
PKCtheta = PKCtheta (Homo sapiens, UniProt Q04759); conditions: 1 μM; Run 1, Run 2
Sequence of PKCtheta (Q04759 whole entry): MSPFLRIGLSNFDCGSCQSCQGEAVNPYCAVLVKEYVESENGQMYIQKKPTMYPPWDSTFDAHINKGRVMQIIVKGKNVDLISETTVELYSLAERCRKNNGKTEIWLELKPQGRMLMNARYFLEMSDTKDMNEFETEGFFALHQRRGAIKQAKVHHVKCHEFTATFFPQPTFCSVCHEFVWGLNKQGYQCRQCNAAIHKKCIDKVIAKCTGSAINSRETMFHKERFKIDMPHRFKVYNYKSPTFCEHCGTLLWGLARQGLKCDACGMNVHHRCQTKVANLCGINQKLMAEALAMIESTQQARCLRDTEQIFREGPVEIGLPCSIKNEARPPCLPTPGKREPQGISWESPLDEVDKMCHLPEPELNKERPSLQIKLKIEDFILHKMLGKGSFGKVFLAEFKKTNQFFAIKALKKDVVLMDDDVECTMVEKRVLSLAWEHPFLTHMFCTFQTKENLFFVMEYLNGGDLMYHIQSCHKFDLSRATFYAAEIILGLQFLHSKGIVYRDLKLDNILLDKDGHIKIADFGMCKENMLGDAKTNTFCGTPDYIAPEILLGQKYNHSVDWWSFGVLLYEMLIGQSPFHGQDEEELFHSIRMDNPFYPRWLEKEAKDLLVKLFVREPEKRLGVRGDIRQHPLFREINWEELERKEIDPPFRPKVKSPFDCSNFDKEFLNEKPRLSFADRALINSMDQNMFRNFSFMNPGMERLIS

Sequence of P38b/MAPK11 (Q15759 whole entry): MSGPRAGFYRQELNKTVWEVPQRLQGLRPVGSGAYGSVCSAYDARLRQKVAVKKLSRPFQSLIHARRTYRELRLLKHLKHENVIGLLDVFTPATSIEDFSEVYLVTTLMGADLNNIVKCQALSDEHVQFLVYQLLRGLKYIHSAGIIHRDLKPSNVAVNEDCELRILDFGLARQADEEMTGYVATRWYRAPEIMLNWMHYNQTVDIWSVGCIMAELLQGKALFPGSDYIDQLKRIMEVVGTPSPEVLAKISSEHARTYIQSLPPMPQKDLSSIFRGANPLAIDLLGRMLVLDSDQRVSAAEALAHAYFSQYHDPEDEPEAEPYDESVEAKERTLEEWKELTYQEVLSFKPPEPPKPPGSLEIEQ
T1 sequence (P10632 whole entry): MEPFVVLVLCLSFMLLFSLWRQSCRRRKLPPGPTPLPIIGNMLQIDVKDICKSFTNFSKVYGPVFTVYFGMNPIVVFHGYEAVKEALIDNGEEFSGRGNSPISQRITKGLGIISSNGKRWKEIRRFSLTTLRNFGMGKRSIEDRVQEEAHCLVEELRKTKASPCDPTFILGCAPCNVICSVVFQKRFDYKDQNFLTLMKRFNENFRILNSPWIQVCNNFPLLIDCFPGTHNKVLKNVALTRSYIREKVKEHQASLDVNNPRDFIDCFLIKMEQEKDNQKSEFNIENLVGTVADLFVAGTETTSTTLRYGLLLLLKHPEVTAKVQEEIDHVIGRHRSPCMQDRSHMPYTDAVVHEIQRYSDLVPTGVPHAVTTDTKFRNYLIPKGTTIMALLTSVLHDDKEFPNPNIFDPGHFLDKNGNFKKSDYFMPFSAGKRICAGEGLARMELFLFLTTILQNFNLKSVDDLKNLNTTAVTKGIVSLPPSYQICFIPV
Sequence of SBK1 (Q52WX2 whole entry): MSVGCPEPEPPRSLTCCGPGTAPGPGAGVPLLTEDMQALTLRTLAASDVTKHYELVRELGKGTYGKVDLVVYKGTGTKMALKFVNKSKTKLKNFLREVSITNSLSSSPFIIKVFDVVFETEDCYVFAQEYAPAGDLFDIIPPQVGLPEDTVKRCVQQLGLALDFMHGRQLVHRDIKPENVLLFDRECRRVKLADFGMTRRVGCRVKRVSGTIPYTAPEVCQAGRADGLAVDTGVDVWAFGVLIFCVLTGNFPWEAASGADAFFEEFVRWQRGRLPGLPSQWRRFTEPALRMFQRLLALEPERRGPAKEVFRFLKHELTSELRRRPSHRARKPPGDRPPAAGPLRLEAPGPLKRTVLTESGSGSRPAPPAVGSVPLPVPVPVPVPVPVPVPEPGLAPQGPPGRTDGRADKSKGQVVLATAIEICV
Sequence of CK1G3 (Q9Y6M4 whole entry): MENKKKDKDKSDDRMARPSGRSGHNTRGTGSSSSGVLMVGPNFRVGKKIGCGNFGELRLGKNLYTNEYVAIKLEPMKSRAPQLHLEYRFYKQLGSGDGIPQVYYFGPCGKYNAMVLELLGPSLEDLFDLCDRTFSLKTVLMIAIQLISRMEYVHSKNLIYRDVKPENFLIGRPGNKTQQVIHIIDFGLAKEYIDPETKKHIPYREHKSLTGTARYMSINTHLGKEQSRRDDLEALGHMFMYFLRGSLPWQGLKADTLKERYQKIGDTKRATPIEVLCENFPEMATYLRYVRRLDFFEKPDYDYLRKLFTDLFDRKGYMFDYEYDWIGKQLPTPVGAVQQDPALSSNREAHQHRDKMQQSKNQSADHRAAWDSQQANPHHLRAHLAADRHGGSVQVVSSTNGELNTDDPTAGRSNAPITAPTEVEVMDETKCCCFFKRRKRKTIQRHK
Sequence of GRK4 (P32298 whole entry): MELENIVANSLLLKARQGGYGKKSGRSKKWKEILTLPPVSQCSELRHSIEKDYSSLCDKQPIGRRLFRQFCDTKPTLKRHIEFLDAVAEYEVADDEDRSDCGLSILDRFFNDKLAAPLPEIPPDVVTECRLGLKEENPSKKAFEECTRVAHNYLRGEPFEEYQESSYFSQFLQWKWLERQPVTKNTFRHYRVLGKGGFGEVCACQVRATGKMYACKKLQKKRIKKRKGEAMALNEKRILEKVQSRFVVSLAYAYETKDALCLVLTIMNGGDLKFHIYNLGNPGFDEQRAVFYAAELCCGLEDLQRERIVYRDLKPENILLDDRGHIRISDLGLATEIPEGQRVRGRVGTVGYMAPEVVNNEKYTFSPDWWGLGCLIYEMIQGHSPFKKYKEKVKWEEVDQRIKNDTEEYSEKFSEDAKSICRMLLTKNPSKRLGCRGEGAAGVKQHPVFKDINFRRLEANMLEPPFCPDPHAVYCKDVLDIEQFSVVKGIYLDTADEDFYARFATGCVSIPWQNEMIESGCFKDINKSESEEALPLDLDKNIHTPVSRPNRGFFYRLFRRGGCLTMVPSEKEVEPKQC
Sequence of OSR1/OXSR1 (O95747 whole entry): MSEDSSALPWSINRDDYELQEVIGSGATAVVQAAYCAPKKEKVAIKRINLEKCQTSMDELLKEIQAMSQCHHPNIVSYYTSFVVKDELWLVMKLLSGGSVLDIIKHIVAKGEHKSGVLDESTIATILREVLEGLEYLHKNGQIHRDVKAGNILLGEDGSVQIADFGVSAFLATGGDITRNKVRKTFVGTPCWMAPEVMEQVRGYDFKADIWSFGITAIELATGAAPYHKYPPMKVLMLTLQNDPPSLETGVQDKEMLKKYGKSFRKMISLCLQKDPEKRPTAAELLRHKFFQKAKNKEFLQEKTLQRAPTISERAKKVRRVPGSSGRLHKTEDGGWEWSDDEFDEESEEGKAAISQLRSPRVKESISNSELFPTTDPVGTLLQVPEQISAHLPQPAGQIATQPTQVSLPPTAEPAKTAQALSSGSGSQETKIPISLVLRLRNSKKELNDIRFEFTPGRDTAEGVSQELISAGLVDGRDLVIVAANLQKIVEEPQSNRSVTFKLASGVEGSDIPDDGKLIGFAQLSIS
Sequence of NEK4 (P51957 whole entry): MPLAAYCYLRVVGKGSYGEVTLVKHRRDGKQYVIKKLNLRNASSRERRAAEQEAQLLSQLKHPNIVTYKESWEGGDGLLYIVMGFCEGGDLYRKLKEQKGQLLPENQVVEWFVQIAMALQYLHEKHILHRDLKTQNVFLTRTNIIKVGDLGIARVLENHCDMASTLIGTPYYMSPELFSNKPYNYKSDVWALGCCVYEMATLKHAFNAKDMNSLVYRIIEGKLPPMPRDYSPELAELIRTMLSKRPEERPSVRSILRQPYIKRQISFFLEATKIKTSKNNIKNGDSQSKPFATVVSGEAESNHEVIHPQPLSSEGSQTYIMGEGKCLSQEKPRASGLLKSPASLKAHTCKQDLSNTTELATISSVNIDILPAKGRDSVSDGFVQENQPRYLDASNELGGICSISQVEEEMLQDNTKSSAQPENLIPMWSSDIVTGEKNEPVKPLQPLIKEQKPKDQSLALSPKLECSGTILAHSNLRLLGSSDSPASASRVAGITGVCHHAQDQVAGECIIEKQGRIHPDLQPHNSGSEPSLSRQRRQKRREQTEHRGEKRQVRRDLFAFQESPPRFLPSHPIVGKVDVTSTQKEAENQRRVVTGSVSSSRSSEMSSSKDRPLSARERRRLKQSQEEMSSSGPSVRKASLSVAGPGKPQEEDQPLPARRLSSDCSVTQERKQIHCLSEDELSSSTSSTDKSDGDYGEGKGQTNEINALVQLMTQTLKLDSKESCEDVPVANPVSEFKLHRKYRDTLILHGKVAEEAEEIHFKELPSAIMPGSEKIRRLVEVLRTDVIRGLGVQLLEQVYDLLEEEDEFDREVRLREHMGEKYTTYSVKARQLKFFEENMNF
Sequence of p70S6Kb/RPS6KB2 (Q9UBS0 whole entry): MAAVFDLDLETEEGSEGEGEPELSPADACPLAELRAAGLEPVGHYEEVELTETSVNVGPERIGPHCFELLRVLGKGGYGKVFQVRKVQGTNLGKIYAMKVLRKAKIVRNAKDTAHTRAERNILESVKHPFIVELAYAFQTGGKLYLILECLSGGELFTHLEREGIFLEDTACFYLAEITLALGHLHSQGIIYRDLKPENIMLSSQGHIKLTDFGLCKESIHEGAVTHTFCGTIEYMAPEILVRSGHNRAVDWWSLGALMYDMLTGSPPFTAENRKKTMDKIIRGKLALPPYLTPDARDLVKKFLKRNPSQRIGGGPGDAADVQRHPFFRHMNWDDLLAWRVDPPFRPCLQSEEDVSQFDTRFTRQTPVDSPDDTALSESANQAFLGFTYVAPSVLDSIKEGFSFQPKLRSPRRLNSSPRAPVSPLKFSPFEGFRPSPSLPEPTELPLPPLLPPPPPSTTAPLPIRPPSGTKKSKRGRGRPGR

| SMILES | IC50 (CYP2C8) [µM] | % enzyme activity (NEK4) [%] | CYP inhibition (CYP3A4-Testosterone) [µM] | % enzyme activity (p70S6Kb/RPS6KB2) [%] | % enzyme activity (PKG1a) [%] | remaining activity at 1 µM (OSR1/OXSR1) [%] | % enzyme activity (GRK4) [%] | remaining activity at 1 µM (SBK1) [%] | % enzyme activity (CHK1) [%] | remaining activity at 1 µM (CK1G3) [%] | % enzyme activity (MAPKAPK5/PRAK) [%] | % enzyme activity (P38b/MAPK11) [%] | % enzyme activity (PKCtheta) [%] |
| --- | --- | --- | --- | --- | --- | --- | --- | --- | --- | --- | --- | --- | --- |
| COc1cc(-c2cncc(-c3ccc(N4C[C@@H](C)N(C)[C@@H](C)C4)cc3)c2C)cc(F)c1C(N)=O [Compound 26c, 2-Fluoro-6-methoxy-4-(4-methyl-5-(4-((3R,5S)-3,4,5-trimethylpiperazin-1-yl)phenyl)pyridin-3-yl)benzamide] | > 50 | 97.25 | > 50 | 99.09 | 101.45 | 95 | 92.15 | 103 | 100.95 | 78.8 | 94.46 | 95.51 | 84.96 |
| COc1cc(-c2cncc(-c3ccc(N4CCN(C)CC4)cc3)c2C)cc(F)c1C(N)=O [Compound 26a, 2-Fluoro-6-methoxy-4-(4-methyl-5-(4-(4-methylpiperazin-1-yl)phenyl)pyridin-3-yl)benzamide] | > 50 | 97.67 | > 50 | 97.21 | 97.81 | 93.4 | 79.15 | 94.6 | 94.26 | 65.9 | 90.60 | 92.20 | 81.31 |
